We go through 7 molecules from publication PMC6967409 (Frontiers in Chemistry, 2020).

The subject of data set [1] is P. falciparum NF54. Description: Metabolic (parasite LDH) assay, asexual ring stage parasites, 48 h. To be noted: Plasmodium falciparum, pLDH, CQ-sensitive NF54. In kind it is cell-based. On the procedure:
(§1) P. falciparum parasites (NF54, K1, and W2) were cultured in vitro in human erythrocytes (A^+ or O^+) under 90% N2, 5% CO2, and 5% O2 atmospheric conditions with supplemented RPMI 1640 media (Sigma Aldrich) containing Albumax II, as previously described (Verlinden et al., [2011]). This study was carried out according the guidelines set out by the Faculty of Health Sciences Ethical Committee, Ethical Clearance no. EC-120821/077. The protocol was approved by the Faculty of Health sciences ethical committee at the University of Pretoria. All subjects gave written informed consent in accordance with the Declaration of Helsinki. Parasite proliferation was monitored microscopically using Giemsa stained smears. Synchronized ring stage parasites (>95%) were obtained using a 5% D-sorbitol (Sigma Aldrich) treatment. […] Gametocyte cultures were kept stationary under 90% N2, 5% CO2, and 5% O2 atmospheric conditions at 37°C and treated with 50 mM N-acetyl-glucosamine (NAG) to eliminate residual invasion of asexual parasites.
(§2) Working solutions of the derivatives were prepared from a 10 mM stock solution in 100% DMSO in supplemented RPMI 1640 media containing Albumax II with a final DMSO concentration of <0.1%, previously determined as being non-toxic to intraerythrocytic asexual parasites and gametocytes. Dose responses were assayed using a two-fold serial drug dilution on in vitro >95% ring stage intraerythrocytic P. falciparum parasites at 37°C under 90% N2, 5% CO2, and 5% O2 atmospheric conditions, detecting both parasite lactate dehydrogenase (pLDH) activity as a metabolic marker following a 48 h drug exposure (1.5–2% parasitemia and 2% hematocrit; Makler et al., [1993]) and SYBR Green I fluorescence as proliferative marker following a 96 h drug exposure (1% parasitemia and 1% hematocrit). […] Data analysis was performed using GraphPad Prism 7.

Data set [2] is described as follows: Cytotoxicity, Cytoselect LDH cytotoxicity assay kit. It counts as cell-based. The note with it: human, HepG2 cells. The procedure: (§3) Cytotoxicity (EC50) was determined against Chinese hamster ovarian (CHO) using a 3-(4,5-dimethylthiazol-2-yl)-2,5-diphenyltetrazolium bromide (MTT) assay and hepatocellular carcinoma cells (HepG2) using the Cytoselect LDH cytotoxicity assay kit (Cell Biolabs).

In data set [3] the test system is P. falciparum NF54 early stage gametocytes (>90% stage I–III). The data set is described as follows: Gametocytocidal luciferase reporter assay, early stage, 48 h. To be noted: Plasmodium falciparum, NF54, 48 h, read-out: Early Stage (EG, Luc 48 h) IC50. It counts as cell-based. The procedure: as §1
(§4) Gametocytocidal activity was determined using the luciferase reporter line (Reader et al., [2015]) to derive dose responses with two-fold serial drug dilutions for 48 h against early stage gametocytes (day 5 post-induction population, >90% stage I–III) and 10-fold serial drug dilutions for 72 h against late stage gametocytes (day 10 post-induction population, >90% late stage IV–V) (2% gametocytemia, 2% hematocrit), at 37°C under 90% N2, 5% CO2, and 5% O2 atmospheric conditions.
(A reporter such as luciferase makes a cellular process visible.)

The test system of the next data set is P. falciparum W2. Description: Proliferative (SYBR Green I) assay, asexual parasites, 96 h. It counts as cell-based. To be noted: Plasmodium falciparum, ±SEM. On the procedure:
as §1, §2

A further data set relates to P. falciparum K1. The description is as above. It counts as cell-based. To be noted: Plasmodium falciparum, ±SEM. The procedure:
as §1, §2

For data set [4], the system named is P. falciparum NF54. The data set is described as above. The note with it: Plasmodium falciparum, ±SEM. It counts as cell-based. The procedure:
as §1, §2

The subject of another data set is P. falciparum Dd2. Description: Metabolic (parasite LDH) assay, asexual ring stage parasites, 48 h. It counts as cell-based. The note with it: Plasmodium falciparum, pLDH, Dd2 CQ, pyrimethamine resistant. On the procedure: as §2
The next data set in a line: Cytotoxicity, MTT assay. To be noted: Chinese hamster, CHO cells. It counts as cell-based. The procedure: as §3
In general terms: Tetrazolium dyes change colour on reduction, which living cells bring about.

For data set [5], the system named is P. falciparum NF54 late stage gametocytes (>90% stage IV and V). The data set is described as follows: Gametocytocidal luciferase reporter assay, late stage, 72 h. In kind it is cell-based, Plasmodium falciparum. To be noted: Plasmodium falciparum, NF54, 72 h, read-out: Late Stage (LG, Luc 72 h) IC50, >90% stage IV and V gametocytes, ±SEM. The procedure:
as §1, §4

The subject of data set [6] is asexual P. falciparum NF54, Dd2, K1, W2. The data set is described as follows: Asexual P. falciparum, metabolic (pLDH) and proliferative (SYBR Green I) platforms. To be noted: Plasmodium falciparum; drug-sensitive and -resistant parasites, both assay platforms; read-out: IC50, asexual P. falciparum metabolic activity and proliferation. It counts as cell-based. The procedure: Data analysis was performed using GraphPad Prism 7.
The in vitro activities of the new derivatives were determined against drug sensitive NF54 and multi-drug resistant Dd2, K1, and W2 intraerythrocytic asexual P. falciparum malaria parasite strains using both a metabolic (parasite LDH) and a proliferative (SYBR Green I fluorescence) assay readout (Table 1).

Data set [7] relates to P. berghei ANKA GFP-Luc-SMcon sporozoites. Description: P. berghei-luciferase liver stage bioluminescence assay (causal prophylactic mode) in HepG2-CD81 cells. It counts as cell-based, Plasmodium berghei. On the procedure: (§5) Briefly, HepG2-CD81 cells were seeded into 1,536 well plates containing 50 nL of test and control compounds diluted into DMSO. […] Next, 2 μL of luciferin reagent (Promega BrightGlo) was added to each well and luciferase activity was detected using a Perkin Elmer Envision plate reader. […] In parallel, plates were processed without sporozoites for HepG2 toxicity measurements.
(§6) In continuation of the transmission blocking theme, it is important to establish activities against liver stage parasites. […] This assay uses ultra-high-throughput screening methods optimized for a 1536-well format and a HepG2 human hepatoma cell line. […] To establish selectivity of the compounds for the parasite in the liver stage of infection, cytotoxicity was determined by measuring bioluminescence from the reaction between free ATP of compound-treated, uninfected hepatocytes and a luciferase reporter system.

Data set [8] is described as follows: HepG2 cytotoxicity bioluminescence assay (CellTiterGlo, ATP). In kind it is cell-based, human. To be noted: human, uninfected HepG2-CD81 cells. The procedure: as §5, §6
The next data set concerns HepG2 cells. Described as above. It counts as cell-based, human. The note with it: two biological replicates listed in one cell. The procedure: as §5, §6
Setting [9] is: >90% stage I–III gametocytes, ±SEM.

The structures appear in SMILES notation. Several values for one entry are separate records, joined by “and”; a condition that tells them apart may be missing. Equal values may be shown once. Read-outs that look alike come from different tables or passages of the source. Where only a bound is given, the exact number is not on record here.

In general, EC50 refers to the concentration needed to bring the measured effect to its halfway point. A high value points to a less potent agent. As to `C[C@H]1[C@H](N2CCN(S(=O)(=O)c3ccc(F)cc3)CC2)O[C@@H]2O[C@@]3(C)CC[C@H]4[C@H](C)CC[C@@H]1[C@@]24OO3` [Compound 19], the IC50 in the data set with P. falciparum NF54 [1] was 1.65 ± 0.04 nM; in [3] (setting [9]), 12.1 ± 4.5 nM; in the data set with P. falciparum W2 it was 4.8 ± 0.5 nM; in the data set on P. falciparum K1, 4.2 ± 0.1 nM; in the data set with P. falciparum NF54 [4], 3.4 ± 0.4 nM; with P. falciparum Dd2, 9.8 ± 0.4 nM. Besides, the IC50 in data set [5] was determined as 0.7 ± 0.5 nM. Further, the EC50 in data set [2] is 558 nM; in the data set “Cytotoxicity, MTT assay” it was above 196000 nM.

Take `CCCCCCNC(=O)N1CCN([C@@H]2O[C@@H]3O[C@@]4(C)CC[C@H]5[C@H](C)CC[C@@H]([C@H]2C)[C@@]35OO4)CC1` [Compound 20]: in [6], the IC50 was in the range of 50 to 100 nM.

Consider `CCCCCCCCCCCCCCCCNC(=O)N1CCN([C@@H]2O[C@@H]3O[C@@]4(C)CC[C@H]5[C@H](C)CC[C@@H]([C@H]2C)[C@@]35OO4)CC1` [Compound 21], for which the IC50 in data set [6] lay in the range of 50 to 100 nM.

Consider `C[C@H]1[C@H](N2CCN(C(=O)Nc3ccc(C(C)(C)C)cc3)CC2)O[C@@H]2O[C@@]3(C)CC[C@H]4[C@H](C)CC[C@@H]1[C@@]24OO3` [Compound 22], for which the IC50 was found to be 2.11 ± 0.53 nM in the data set with P. falciparum NF54 [1]; 45.9 ± 9.9 nM in data set [3]; 1.48 ± 0.14 nM with P. falciparum W2; 1.12 ± 0.08 nM with P. falciparum K1; 1.87 ± 0.12 nM in the data set with P. falciparum NF54 [4]; 24.7 ± 2.79 nM in the data set on P. falciparum Dd2. Moreover, the IC50 in [5] stood at 17.7 ± 15.1 nM. Moreover, the EC50 is 616 nM in data set [2] and 2920 nM in “Cytotoxicity, MTT assay”.

Turning to `C[C@H]1[C@H](NS(=O)(=O)N2CCN(c3ccccn3)CC2)O[C@@H]2O[C@@]3(C)CC[C@H]4[C@H](C)CC[C@@H]1[C@@]24OO3` [Compound 29], the IC50 in the data set on P. falciparum NF54 [1] came out at 1.68 ± 0.18 nM; in data set [3] (setting [9]), 24.7 ± 4.9 nM; with P. falciparum W2, 3.3 ± 0.7 nM; in the data set on P. falciparum K1, 4.9 ± 0.9 nM; in the data set with P. falciparum NF54 [4], 4.3 ± 0.4 nM; in the data set with P. falciparum Dd2, 6.4 ± 1.4 nM. Moreover, the IC50 in data set [5] is 0.04 ± 0.03 nM. The EC50 in data set [2] is 173 nM; in “Cytotoxicity, MTT assay”, above 197000 nM.

Regarding `C[C@H]1[C@H](NS(=O)(=O)N2CCN(c3ccc(C(F)(F)F)cn3)CC2)O[C@@H]2O[C@@]3(C)CC[C@H]4[C@H](C)CC[C@@H]1[C@@]24OO3` [Compound 30], the IC50 amounted to 1.8 ± 0.6 nM in the data set on P. falciparum NF54 [1]; 19.3 ± 6.2 nM in data set [3] (setting [9]); 3 ± 1 nM in the data set with P. falciparum W2; 4.3 ± 1.3 nM in the data set on P. falciparum K1; 3.3 ± 0.3 nM in the data set on P. falciparum NF54 [4]; 9.64 ± 0.6 nM in the data set with P. falciparum Dd2. In addition, the IC50 in data set [5] amounted to 4 ± 3.8 nM. The EC50 in [2] came to 311 nM; in “Cytotoxicity, MTT assay”, 34300 nM.

As usually defined, the inhibition is the change of the read-out against control, counted positive when it falls. Turning to `COc1ccc(C[C@H](N)C(=O)N[C@H]2[C@@H](O)[C@H](n3cnc4c(N(C)C)ncnc43)O[C@@H]2CO)cc1` [Puromycin], the Emax in data set [7] (Plasmodium berghei, 48 h, two biological replicates listed in one cell, read-out: P.berghei-Luciferase Liver Stage Bioluminescence Assay: Maximum measured (%)) was 107%. Further, the IC50 in data set [7] (Plasmodium berghei, HepG2, 48 h, liver stage, HepG2 host cells, luciferase after 48 h, ±SD, read-out: P. berghei sporozoites IC50) amounted to 22.7 ± 4.53 nM; in data set [7] (Plasmodium berghei, two biological replicates listed in one cell, read-out: P.berghei-Luciferase Liver Stage Bioluminescence Assay: IC50), 19.5 nM; in data set [7] (two biological replicates listed in one cell, read-out: P.berghei-Luciferase Liver Stage Bioluminescence Assay: IC50), 25.9 nM; in the data set on HepG2 cells it was 120 nM. For the same molecule, the inhibition at 5 µM in data set [7] (Plasmodium berghei, Conc. 5 μM, read-out: P. berghei sporozoites Maximum inhibition %) came to 110 ± 4.24%. This molecule also displayed an IC50 at 72 h in [8] (two biological replicates listed in one cell) of 114 nM. In data set [8] (uninfected HepG2, ATP bioluminescence), this molecule showed an EC50 at 72 h of 117 nM. In the data set on HepG2 cells, the “HepG2 Cytotoxicity Bioluminescence Assay: Maximum measured (%)” value was 102.0% and 105.0%.
